Test: frontal affinity chromatography (FAC), association constant to PA sugar chains without L-fucose
Assay type: binding
Description: The following section will describe a method of calculating an association constant by frontal affinity chromatography (FAC). This method is based on the following principle. […] Then, the elution front end (front) is observed immediately. When there is an affinity with lectin, the elution of the sugar chain is delayed.
The preparation of a lectin column used in the apparatus is performed in the method as described below. 1. Purified lectin is dissolved in 0.1 to 0.2M of NaHCO3 buffer solution (pH 8.3 to 8.5). 2. The lectin is immobilized, via a lectin primary amino group, a carrier such as NHS activated sepharose. 3. Then, the lectin is blocked by Tris buffer solution including primary amine or ethanolamine for example. 4. Lectin-sepharose is suspended in 10 mM Tris buffer, including 0.8% of NaCl (pH 7.4, TBS). Then, lectin immobilized resin is filled in a miniature column (φ2 mm×10 mm, 31.4 μl). 5. The miniature column in which the lectin immobilized resin is filled is protected by a holder and the lectin column is connected to an FAC automatic analysis apparatus (FAC-1, SHIMADZU CORPORATION).
Then, the elution of the PA sugar chain from the column is detected by a fluorescence detector (excitation wavelength/fluorescence wavelength: 310 nm/380 nm).
Based on the detection data, by using the elution front end (Vo) of the sugar chain (PA rhamnose) not interacting with lectin as a reference, the delay (V−Vo) of the elution front end (V) of a sugar chain interacting with lectin is calculated as an interaction strength. Then, based on the following FAC criteria expressions, the association constant (Ka) between the sugar chain and lectin is calculated based on V−Vo and Bt. If the interaction strength (V−Vo value) and the association constant are higher, a higher affinity is caused between lectin and an L-fucose α1→6 sugar chain.
[In the formula, A means substance used for the elution, Ao means the initial concentration of the substance A, B means a immobilized ligand, V means the elution volume, Vo means the elution front end volume of the substance not interacting with the immobilized ligand B at all, Bt means an effective ligand amount, Kd means a dissociation constant (an inverse of the association constant)].
Pyridylaminated (PA) sugar chains shown in FIG. 1 and FIG. 2 were used to frontal affinity chromatography (FAC) analysis. PA sugars were purchased from TAKARA BIO INC., SEIKAGAKU BIOBUSINESS CORPORATION, and Masuda Chemical Industries co., LTD. PA sugar were also obtained by pyridylaminating, by GlycoTAG®(TAKARA BIO INC.), an unlabeled sugar chain or a sugar chain obtained by subjecting a sugar chain to enzyme digestion for example.
Lectin was dissolved in 0.2 M NaHCO3 buffer solution (pH 8.3) including 0.5 M NaCl and coupled to the NHS-activated sepharose (GE Healthcare Bioscience) by following the manufacturer's instructions. Then, lectin immobilized sepharose was suspended in 10 mM Tris buffer (pH 7.4, TBS) including […] and the resultant matter was filled in a miniature column (φ2 mm×10 mm, 31.4 μl).
Frontal affinity chromatography was performed using FAC automatic analysis apparatus (FAC-1, SHIMADZU CORPORATION). In particular, the above-prepared lectin column was inserted to a stainless steel holder and the holder was connected to FAC-1 apparatus. The flow rate and the column temperature were maintained at 0.125 ml/min and 25 degrees C., respectively. After the miniature column was equilibrated by the TBS, an excessive volume (0.5 ml to 4 ml) of a PA sugar chain (3.75 nM or 7.5 nM) was continuously inputted to the column using an automatic sampling apparatus.
The fluorescent strength of the eluate of the PA sugar (excitation wavelength of 310 nm and fluorescence wavelength of 380 nm) was monitored to measure the interaction strength [a difference of the front end eluate to the standard oligosaccharide (PA rhamnose): V−V0]. […]

With Naematoloma sublateritium lectin [NSL] the “binding to sugar chain not having L-fucose” value (FAC) was “not detected at all”, the “association constant Ka” value (Sugar chain No. 001, sugar chain not having L-fucose) was <1000 M⁻¹ and the “association constant Ka” value (Sugar chain No. 002, sugar chain not having L-fucose) was <1000 M⁻¹. The “association constant Ka” value (Sugar chain No. 003, sugar chain not having L-fucose) was <1000 M⁻¹, the “association constant Ka” value (Sugar chain No. 004, sugar chain not having L-fucose) was <1000 M⁻¹ and the “association constant Ka” value (Sugar chain No. 005, sugar chain not having L-fucose) was <1000 M⁻¹. The “association constant Ka” value (Sugar chain No. 006, sugar chain not having L-fucose) was <1000 M⁻¹, the “association constant Ka” value (Sugar chain No. 007, sugar chain not having L-fucose) was <1000 M⁻¹ and the “association constant Ka” value (Sugar chain No. 008, sugar chain not having L-fucose) was <1000 M⁻¹. For the same substance, the “association constant Ka” value (Sugar chain No. 009, sugar chain not having L-fucose) was <1000 M⁻¹, the “association constant Ka” value (Sugar chain No. 010, sugar chain not having L-fucose) was <1000 M⁻¹ and the “association constant Ka” value (Sugar chain No. 011, sugar chain not having L-fucose) was <1000 M⁻¹. The “association constant Ka” value (Sugar chain No. 012, sugar chain not having L-fucose) was <1000 M⁻¹, the “association constant Ka” value (Sugar chain No. 013, sugar chain not having L-fucose) was <1000 M⁻¹ and the “association constant Ka” value (Sugar chain No. 014, sugar chain not having L-fucose) was <1000 M⁻¹. The “association constant Ka” value (Sugar chain No. 101, sugar chain not having L-fucose) was <1000 M⁻¹, the “association constant Ka” value (Sugar chain No. 103, sugar chain not having L-fucose) was <1000 M⁻¹ and the “association constant Ka” value (Sugar chain No. 104, sugar chain not having L-fucose) was <1000 M⁻¹. For the same substance, the “association constant Ka” value (Sugar chain No. 105, sugar chain not having L-fucose) was <1000 M⁻¹, the “association constant Ka” value (Sugar chain No. 107, sugar chain not having L-fucose) was <1000 M⁻¹ and the “association constant Ka” value (Sugar chain No. 108, sugar chain not having L-fucose) was <1000 M⁻¹. The “association constant Ka” value (Sugar chain No. 301, sugar chain not having L-fucose) was <1000 M⁻¹, the “association constant Ka” value (Sugar chain No. 304, sugar chain not having L-fucose) was <1000 M⁻¹ and the “association constant Ka” value (Sugar chain No. 305, sugar chain not having L-fucose) was <1000 M⁻¹. The “association constant Ka” value (Sugar chain No. 307, sugar chain not having L-fucose) was <1000 M⁻¹, the “association constant Ka” value (Sugar chain No. 308, sugar chain not having L-fucose) was <1000 M⁻¹ and the “association constant Ka” value (Sugar chain No. 313, sugar chain not having L-fucose) was <1000 M⁻¹. For the same substance, the “association constant Ka” value (Sugar chain No. 314, sugar chain not having L-fucose) was <1000 M⁻¹, the “association constant Ka” value (Sugar chain No. 323, sugar chain not having L-fucose) was <1000 M⁻¹ and the “association constant Ka” value (Sugar chain No. 501, sugar chain not having L-fucose) was <1000 M⁻¹. For the same substance, the “association constant Ka” value (Sugar chain No. 502, sugar chain not having L-fucose) was <1000 M⁻¹, the “association constant Ka” value (Sugar chain No. 503, sugar chain not having L-fucose) was <1000 M⁻¹ and the “association constant Ka” value (Sugar chain No. 504, sugar chain not having L-fucose) was <1000 M⁻¹. For the same substance, the “association constant Ka” value (Sugar chain No. 701, sugar chain not having L-fucose) was <1000 M⁻¹, the “association constant Ka” value (Sugar chain No. 702, sugar chain not having L-fucose) was <1000 M⁻¹ and the “association constant Ka” value (Sugar chain No. 703, sugar chain not having L-fucose) was <1000 M⁻¹. The “association constant Ka” value (Sugar chain No. 704, sugar chain not having L-fucose) was <1000 M⁻¹, the “association constant Ka” value (Sugar chain No. 705, sugar chain not having L-fucose) was <1000 M⁻¹ and the “association constant Ka” value (Sugar chain No. 706, sugar chain not having L-fucose) was <1000 M⁻¹. For the same substance, the “association constant Ka” value (Sugar chain No. 707, sugar chain not having L-fucose) was <1000 M⁻¹, the “association constant Ka” value (Sugar chain No. 708, sugar chain not having L-fucose) was <1000 M⁻¹ and the “association constant Ka” value (Sugar chain No. 709, sugar chain not having L-fucose) was <1000 M⁻¹. For the same substance, the “association constant Ka” value (Sugar chain No. 710, sugar chain not having L-fucose) was <1000 M⁻¹, the “association constant Ka” value (Sugar chain No. 711, sugar chain not having L-fucose) was <1000 M⁻¹ and the “association constant Ka” value (Sugar chain No. 712, sugar chain not having L-fucose) was <1000 M⁻¹. The “association constant Ka” value (Sugar chain No. 713, sugar chain not having L-fucose) was <1000 M⁻¹, the “association constant Ka” value (Sugar chain No. 715, sugar chain not having L-fucose) was <1000 M⁻¹ and the “association constant Ka” value (Sugar chain No. 716, sugar chain not having L-fucose) was <1000 M⁻¹. The “association constant Ka” value (Sugar chain No. 717, sugar chain not having L-fucose) was <1000 M⁻¹, the “association constant Ka” value (Sugar chain No. 724, sugar chain not having L-fucose) was <1000 M⁻¹ and the “association constant Ka” value (Sugar chain No. 725, sugar chain not having L-fucose) was <1000 M⁻¹. For the same substance, the “association constant Ka” value (Sugar chain No. 728, sugar chain not having L-fucose) was <1000 M⁻¹, the “association constant Ka” value (Sugar chain No. 732, sugar chain not having L-fucose) was <1000 M⁻¹ and the “association constant Ka” value (Sugar chain No. 733, sugar chain not having L-fucose) was <1000 M⁻¹. The “association constant Ka” value (Sugar chain No. 734, sugar chain not having L-fucose) was <1000 M⁻¹, the “association constant Ka” value (Sugar chain No. 735, sugar chain not having L-fucose) was <1000 M⁻¹ and the “association constant Ka” value (Sugar chain No. 736, sugar chain not having L-fucose) was <1000 M⁻¹. For the same substance, the “association constant Ka” value (Sugar chain No. 737, sugar chain not having L-fucose) was <1000 M⁻¹, the “association constant Ka” value (Sugar chain No. 738, sugar chain not having L-fucose) was <1000 M⁻¹ and the “association constant Ka” value (Sugar chain No. 901, sugar chain not having L-fucose) was <1000 M⁻¹. For the same substance, the “association constant Ka” value (Sugar chain No. 902, sugar chain not having L-fucose) was <1000 M⁻¹, the “association constant Ka” value (Sugar chain No. 903, sugar chain not having L-fucose) was <1000 M⁻¹ and the “association constant Ka” value (Sugar chain No. 905, sugar chain not having L-fucose) was <1000 M⁻¹. For the same substance, the “association constant Ka” value (Sugar chain No. 907, sugar chain not having L-fucose) was <1000 M⁻¹.
